Broadly, the boiling point is the temperature at which the vapour pressure of the liquid equals the pressure above it.

The structures appear in SMILES notation.

The conditions of data set [1]: pure solvent; cited from earlier work.
Data set [2] is described as follows: Test 3 - Acid retention (titration before and after concentrated HCl). The format is physicochemical. The method, then:
In order to measure the ability of each solvent to absorb acid, a titration of each solvent before and after concentrated HCl addition was performed. The difference between how much titrant was needed to neutralize the solvent after the addition of acid and the amount of titrant needed to neutralize the initial solvent was a simple way to determine how much acid was absorbed by each solvent. Mixture A advantageously absorbed more mineral acid than any of the three comparative solvents.

Data set [3] in a line: Test 2 - Moisture retention (Karl Fischer titration). The format is physicochemical. On the procedure: Each solvent (5 g) was put into a small vial and the individual samples were titrated with a Karl Fischer titration machine to evaluate how much moisture was contained in each. De-ionized water (1 g) was then added to each vial, which ensured that each sample was saturated with moisture. The samples were then agitated and allowed to phase separate. Karl Fischer analysis of the organic layer of each solvent was performed after phase separation was complete.
The difference between the saturated moisture percent and the starting sample moisture percent is the amount that was absorbed by the solvent.

For data set [4] the following is noted: cited from earlier work; for BP: Table 1.
The nature of data set [5]: Test 4 - Oil retention (oil saturation point). The format is physicochemical. Particulars: oil added to 4.5 g solvent until phase separation. On the procedure:
An oil absorption test was performed on Mixtures A, B, C, D and the three comparative solvents to see if there was a saturation point associated with any of the solvents. A 4.5 g sample of each solvent was put into a vial and oil was added to each until a phase separation or other noticeable fluid property change took place. […]. Rx-11 and oil phase separated after 0.45 g, or 10 mass % of oil were added.

For data set [6] the following is noted: solubility parameter, Table 1; cited from earlier work.
The conditions of data set [7]: cardiac sensitization relative to CFC-113. An excerpt:
Parameters such as the lethal dose 50 (LD50), lethal concentration 50 (LC50), cardiac sensitization, skin irritation, and mutagenicity (e.g., via the Ames test) can be used as toxicity metrics. The LDn or LCn abbreviations, where n is the percent lethality, are used for the dose of a toxicant lethal to n % of a test population. […] Cardiac sensitization is a measure of the ability of a compound to cause cardiac arrhythmia under stress.
The property modification components are chosen from a list of potential replacement solvents. These compounds included halogenated compounds such as halogenated acetates, alcohols, alkanes, cycloalkanes, alkenes, cycloalkenes, amines, anhydrides, aromatics, carbonyls, diones, esters, ethers, heterocyclics and ketones.

`CC(C)O` [isopropyl alcohol]: the flash point in data set [1] is reported as 54 ° F.
As for `FC(Cl)(Cl)Cl` [CFC-11, trichlorofluoromethane], the “Acid Number after acid” value in data set [2] (after concentrated HCl addition) worked out at 18 mg/L. Further, in data set [2] (before concentrated HCl addition), the “Acid Number before acid” value is 9 mg/L. Besides, the “Acid Absorbed” value in data set [2] (difference after minus before acid) is recorded as 9 mg/L. Also, the Saturated % in data set [3] (moisture in organic layer after 1 g water added to 5 g solvent) stood at 0.007%. The compound also registered a Starting % in data set [3] (moisture in solvent before water addition) of 0.000%. Also, the boiling point in data set [4] is 47.6 °C. Besides, the “saturation point for oil” value in data set [5] is recorded as “no saturation point”.
Consider `CC(C)CBr` [1-bromo-2-methylpropane], for which the flash point in data set [1] is 11 °C.
Consider `COCC(C)OCC(C)OC` (stereo not drawn) [dipropyleneglycol dimethylether], for which, in data set [1], the flash point is on record as 149 ° F.
In the case of `C=C(C)[C@H]1CC=C(C)CC1` [d-limonene], in data set [1], the flash point result was “around 120 ° F”.
In the case of `CCO` [Ethanol, ethanol], the flash point in data set [1] is listed as 55 ° F.
Regarding `FC(F)OC(F)(F)C(F)(F)OC(F)F` [bis(difluoromethoxy)-tetrafluoroethane], the SP in data set [6] is recorded as 7.50 (cal/cm^3)^1/2. Besides, the CS/CS113 in data set [7] is 362.3. Further, the BP in data set [4] is listed as 58.0 C.
For `F/C(=C(\F)C(F)(F)Br)C(F)(F)F` [(Z)-1-bromo-perfluoro-2-butene], in data set [6], the SP is on record as 6.78 (cal/cm^3)^1/2. Also, in data set [7], the CS/CS113 turned out to be 41.4. The BP in data set [4] is reported as 48.0 C.
Consider `Fc1c(F)c(F)c(C(F)(F)Br)c(F)c1F` [(bromodifluoromethyl)-pentafluorobenzene], for which the SP in data set [6] is listed as 7.63 (cal/cm^3)^1/2. Also, in data set [7], the CS/CS113 turned out to be 28.2. Moreover, in data set [4], the BP was 153.3 C.
Take `C=CC(F)(F)C(F)(F)Br` [4-bromo-3,3,4,4-tetrafluoro-1-butene]: the SP in data set [6] was 7.44 (cal/cm^3)^1/2. For the same compound, the CS/CS113 in data set [7] amounted to 5.8. For the same compound, the BP in data set [4] is 55.0 C.
Consider `FC(F)(F)C(F)(F)C(Cl)Cl` [3,3-dichloro-1,1,1,2,2-pentafluoropropane], for which the SP in data set [6] is recorded as 7.26 (cal/cm^3)^1/2. Besides, the CS/CS113 in data set [7] is 16.7. In data set [4], the BP is 48.5 C.

These data come from patent publication US7736537B1, “Replacement solvents having improved properties for refrigeration flushes” (Mainstream Engineering Corp., priority 2008, dated 2010).
